Data set [1] is described as follows: Ex vivo mouse plasma stability testing. It counts as in vitro ADME. Conditions: for plasma half-life, fold greater than the natural GLP-1 peptide: ex vivo mouse plasma, 10 μM, 37°C, LC/MS/MS.
The target of data set [2] is proteinase K (Parengyodontium album, UniProt P06873). Nature of the data set: Peptide proteolysis assay with proteinase K, intact peptide by LC/MS. To be noted: 50 mM Tris HCl pH 7.4, LC/MS.
Data set [3] concerns Leprdb mice. The experiment in a line: Anti-hyperglycemic effect in diabetic Leprdb. It counts as in vivo, mouse. To be noted: single IP injection 10 nmol/kg.
The test system of data set [4] is B6 mice. Nature of the data set: Glucose tolerance test. It counts as in vivo, mouse. Conditions: B6 mice fasted overnight, 10 nmol/kg IP, glucose 2 g/kg IP 30 min later.

Each structure is given as a SMILES string.

Sequence of proteinase K (P06873 106-384): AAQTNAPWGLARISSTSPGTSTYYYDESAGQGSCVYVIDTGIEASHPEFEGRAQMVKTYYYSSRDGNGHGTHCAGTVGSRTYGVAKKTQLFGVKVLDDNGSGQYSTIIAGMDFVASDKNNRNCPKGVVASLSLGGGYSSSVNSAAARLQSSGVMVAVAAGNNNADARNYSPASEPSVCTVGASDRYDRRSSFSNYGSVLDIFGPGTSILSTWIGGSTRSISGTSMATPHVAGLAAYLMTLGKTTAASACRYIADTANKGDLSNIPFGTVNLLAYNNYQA

For the compound `CC[C@H](C)[C@H](NC(=O)[C@H](Cc1ccccc1)NC(=O)[C@H](CCC(=O)O)NC(=O)[C@H](CCCCNC(=O)COCCOCCNC(=O)COCCOCCNC(=O)CC[C@H](NC(=O)CCCCCCCCCCCCCCCCC(=O)O)C(=O)O)NC(=O)[C@H](C)NC(=O)[C@H](C)NC(=O)[C@H](CCC(N)=O)NC(=O)CNC(=O)[C@H](CCC(=O)O)NC(=O)[C@H](CC(C)C)NC(=O)[C@H](Cc1ccc(O)cc1)NC(=O)[C@H](CO)NC(=O)[C@H](CO)NC(=O)[C@@H](NC(=O)[C@H](CC(=O)O)NC(=O)[C@H](CO)NC(=O)[C@@H](NC(=O)[C@H](Cc1ccccc1)NC(=O)[C@@H](NC(=O)CNC(=O)[C@H](CCC(=O)O)NC(=O)C(C)(C)NC(=O)[C@@H](N)Cc1cnc[nH]1)[C@@H](C)O)[C@@H](C)O)C(C)C)C(=O)N[C@@H](C)C(=O)N[C@@H](Cc1c[nH]c2ccccc12)C(=O)N[C@@H](CC(C)C)C(=O)N[C@H](C(=O)N[C@@H](CCCNC(=N)N)C(=O)NCC(=O)N[C@@H](CCCNC(=N)N)C(=O)NCC(=O)O)C(C)C` [semaglutide, reference compound], the “plasma half-life, fold greater than the natural GLP-1 peptide” value in data set [1] amounted to 12 fold.

In general, half-life refers to the time needed for the level to fall by half in the phase considered. The low end stands for rapid decline, the high end for slow decline. Consider `CC[C@H](C)[C@@H]1NC(=O)[C@H](Cc2ccccc2)NC(=O)[C@H](CCC(=O)O)NC(=O)[C@H](CCCCN)NC(=O)[C@H](C)NC(=O)[C@H](C)NC(=O)[C@@]2(CCCC=CCCCCCC[C@@](C)(NC(=O)[C@H](CC(=O)O)NC(=O)[C@H](CO)NC(=O)[C@@H](NC(=O)[C@H](Cc3ccccc3)NC(=O)[C@@H](NC(=O)CNC(=O)[C@H](CCC(=O)O)NC(=O)C(C)(C)NC(=O)[C@@H](N)Cc3c[nH]cn3)[C@@H](C)O)[C@@H](C)O)C(=O)N[C@@H](CO)C(=O)N[C@@H](CO)C(=O)N[C@@H](Cc3ccc(O)cc3)C(=O)N[C@@H](CC(C)C)C(=O)N[C@@H](CCC(=O)O)C(=O)NCC(=O)N2)CCCC=CCCCCCC[C@@](C)(C(=O)N[C@@H](Cc2c[nH]c3ccccc23)C(=O)N[C@@H](CC(C)C)C(=O)N[C@H](C(=O)N[C@@H](CCCCN)C(=O)NCC(=O)N[C@@H](CCCNC(=N)N)C(N)=O)C(C)C)NC1=O` [SAH-GLP-1-A8J(16,23,30)], for which the “fold improvement of proteinase K half-life compared to control (wild-type) GLP-1” value in data set [2] is recorded as “over 24 fold”. Moreover, in data set [3] (15 min p=0.0032, 30 min p=0.0001 vs semaglutide), the “initial reduction in serum glucose” value is reported as “more rapid, initial reduction in serum glucose compared to semaglutide”. Also, the “fold reduction in glucose level compared to vehicle and wild-type GLP-1” value in data set [3] (sustained for 12 hours, n=8) was 2–2.5 fold. In data set [4], the “time to euglycemia after the glucose bolus (GTT)” value was at most 60 min. In data set [1], the “plasma half-life, fold greater than the natural GLP-1 peptide” value was 23 fold. In addition, the half-life at 10 µM in data set [1] (mouse, plasma (freshly drawn, lithium heparin)) stood at 5.33 h.

The values above are taken from paper PMC7366314 (ACS chemical biology, 2020).
